Data from patent publication US12528814B2, “Bifunctional degraders of interleukin-1 receptor-associated kinases and therapeutic use thereof” (NURIX THERAPEUTICS, INC., priority 2020, dated 2026).
Like-named read-outs stand apart in the source and are kept apart here.

Experiments:
IRAK4 [1] = target: T1, IRAK4 (Homo sapiens (Human), UniProt Q9NWZ3); test: IRAK4 Biochemical HTRF Kinase Assay; settings: read-out: IRAK4 HTRF biochemical: IC50
In short: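 IC50 values derive from non-linear regression of sixteen concentrations in duplicate. Kinase reaction ran 90 min at ambient temperature after adding 5 μM STK-S1 substrate, 10 mM ATP and 10 mM MgCl2 (reaction-solution levels, pre-dilution to 10 μl); phospho-peptide detected by HTRF after 60 min.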
Target sequence in this assay (Q9NWZ3 whole entry, species assumed): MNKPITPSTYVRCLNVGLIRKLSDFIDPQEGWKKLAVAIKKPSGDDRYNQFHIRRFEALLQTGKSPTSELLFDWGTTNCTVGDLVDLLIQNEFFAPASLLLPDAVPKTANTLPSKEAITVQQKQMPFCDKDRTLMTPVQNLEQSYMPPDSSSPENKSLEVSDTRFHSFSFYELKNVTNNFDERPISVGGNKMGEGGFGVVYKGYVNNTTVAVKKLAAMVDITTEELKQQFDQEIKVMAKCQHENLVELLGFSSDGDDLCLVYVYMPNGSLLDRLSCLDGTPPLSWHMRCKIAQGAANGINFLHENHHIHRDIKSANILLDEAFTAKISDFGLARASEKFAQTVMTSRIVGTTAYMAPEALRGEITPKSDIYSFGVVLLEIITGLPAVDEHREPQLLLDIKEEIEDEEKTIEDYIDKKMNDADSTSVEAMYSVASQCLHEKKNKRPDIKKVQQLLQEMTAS

IRAK4 [2] = target: T1, IRAK4; test: IRAK4 Degradation HiBiT Assay; settings: HiBiT-tagged Jurkat cells, 4 hrs; for Dmax: Jurkat; for DC50: read-out: Cellular IRAK4 HiBiT: DC50
Target sequence in this assay (Q9NWZ3 whole entry): as the sequence (Q9NWZ3 whole entry, species assumed) above
Description: Compound dilution series (11-point, 3.16-fold dilutions in DMSO, columns 1-11 and 12-22) at 500× the final required concentrations were prepared in Labcyte LDV 384-well plates (cat. no. LP-0200) using a Labcyte Echo 550 Liquid Handler. The 500× solutions ranged from 5 mM to 0.5 μM (final assay concentration range 10 μM to 0.1 nM). Using the Echo, the 500× solutions were stamped into white, 384-well assay plates (Corning, cat. no. 3570) at 60 nL/well. […] C-terminal HiBiT-tagged Jurkat cells (polyclonal cell line or clone 8D5) were plated at 1×10^6 cells/mL, 30 μL/well (3×10^4 cells/well) in complete RPMI (10% FBS, 1% L-glutamine). Cells were incubated for 4 hrs at 32° C./6% CO2.
Following incubation, 30 uL of complete Nano-Glo HiBiT Lytic Detection Reagent (Nano-Glo HiBiT Lytic Buffer with 1:50 Nano-Glo HiBiT Lytic Substrate and 1:100 LgBiT Protein; Promega cat. no. N3040) was added. Cells were further incubated for 10 min at room temperature (RT). Luminescence units (LU) were read on an EnVision plate reader (Perkin Elmer, 0.1 sec per well). Percent IRAK4 remaining per sample was calculated as follows:
Using Graphpad Prism, % IRAK4 remaining values were plotted as a function of compound concentration.

[3] = read-out: Cellular IRAK4 HiBiT: Dmax, Table 4
[4] = read-out: Cellular IRAK4 HiBiT: Dmax, Table 5, multiple runs

| SMILES | IC50 (IRAK4 [1]; Table 4) [nM] | IC50 (IRAK4 [1]; Table 5, multiple runs) [nM] | Dmax (IRAK4 [2]; [3]) [%] | DC50 (IRAK4 [2]; Table 4) [nM] | DC50 (IRAK4 [2]; Table 5, multiple runs) [nM] | Dmax (IRAK4 [2]; [4]) [%] |
| --- | --- | --- | --- | --- | --- | --- |
| CNc1cc(-c2ccc3cc(C#N)cnn23)ncc1-c1nnc([C@H]2CC[C@H](NC(=O)CCCOc3cc(-c4scnc4C)ccc3CNC(=O)[C@@H]3C[C@@H](O)CN3C(=O)[C@@H](NC(=O)C3(F)CC3)C(C)(C)C)CC2)s1 [Example 119, (2S,4R)—N-(2-(4-(((1r,4S)-4-(5-(6-(3-cyanopyrrolo[1,2-b]pyridazin-7-yl)-4-(methylamino)pyridin-3-yl)-1,3,4-thiadiazol-2-yl)cyclohexyl)amino)-4-oxobutoxy)-4-(4-methylthiazol-5-yl)benzyl)-1-((S)-2-(1-fluorocyclopropane-1-carboxamido)-3,3-dimethylbutanoyl)-4-hydroxypyrrolidine-2-carboxamide] |  | 2.2 |  |  | 116 | 117 |
| CC(C)Nc1cc(-c2ccc3cc(C#N)cnn23)ncc1-c1nnc(N2CCN(C(=O)CCCCCCCNc3cccc4c3C(=O)N(C3CCC(=O)NC3=O)C4=O)CC2)s1 (stereo not shown) [Example 8, 7-(5-(5-(4-(8-((2-(2,6-dioxopiperidin-3-yl)-1,3-dioxoisoindolin-4-yl)amino)octanoyl)piperazin-1-yl)-1,3,4-thiadiazol-2-yl)-4-(isopropylamino)pyridin-2-yl)pyrrolo[1,2-b]pyridazine-3-carbonitrile] | 0.8 | 0.8 | 100 | 53.8 | 53.8 | 100 |
| CNc1cc(-c2ccc3cc(C#N)cnn23)ncc1-c1nnc(N2CC3(CCN(C(=O)COc4cc(-c5scnc5C)ccc4CNC(=O)[C@@H]4C[C@@H](O)CN4C(=O)[C@@H](NC(=O)C4(F)CC4)C(C)(C)C)CC3)C2)s1 [Example 179, (2S,4R)—N-(2-(2-(2-(5-(6-(3-cyanopyrrolo[1,2-b]pyridazin-7-yl)-4-(methylamino)pyridin-3-yl)-1,3,4-thiadiazol-2-yl)-2,7-diazaspiro[3.5]nonan-7-yl)-2-oxoethoxy)-4-(4-methylthiazol-5-yl)benzyl)-1-((S)-2-(1-fluorocyclopropane-1-carboxamido)-3,3-dimethylbutanoyl)-4-hydroxypyrrolidine-2-carboxamide] |  | 0.7 |  |  | 57 | 85 |
| CNc1cc(-c2ccc3cc(C#N)cnn23)ncc1-c1nnc(N2CCCC3(CN(C(=O)c4ccc5c(c4)C(=O)N(C4CCC(=O)NC4=O)C5=O)C3)C2)s1 (stereo not shown) [Example 124, 7-(5-(5-(2-(2-(2,6-dioxopiperidin-3-yl)-1,3-dioxoisoindoline-5-carbonyl)-2,6-diazaspiro[3.5]nonan-6-yl)-1,3,4-thiadiazol-2-yl)-4-(methylamino)pyridin-2-yl)pyrrolo[1,2-b]pyridazine-3-carbonitrile] |  | 1.9 |  |  | > 9980 |  |
| Cc1ncsc1-c1ccc(CNC(=O)[C@@H]2C[C@@H](O)CN2C(=O)C(NC(=O)[C@H]2CC[C@H](C(=O)N3CCN(c4nnc(-c5cnc(-c6ccc7cc(C#N)cnn67)cc5NC(C)C)s4)CC3)CC2)C(C)(C)C)cc1 (stereo partly drawn) [Example 45, (2S,4R)-1-((S)-2-((1r,4S)-4-(4-(5-(6-(3-cyanopyrrolo[1,2-b]pyridazin-7-yl)-4-(isopropylamino)pyridin-3-yl)-1,3,4-thiadiazol-2-yl)piperazine-1-carbonyl)cyclohexane-1-carboxamido)-3,3-dimethylbutanoyl)-4-hydroxy-N-(4-(4-methylthiazol-5-yl)benzyl)pyrrolidine-2-carboxamide] | 19 | 19 | 67 | 4330 | 2490 | 83 |
| Cc1ncsc1-c1ccc(CNC(=O)[C@@H]2C[C@@H](O)CN2C(=O)[C@@H](NC(=O)C2(F)CC2)C(C)(C)C)c(OCC(=O)N2CCC3(CC2)CCN(c2nnc(-c4cnc(-c5ccc6cc(C#N)cnn56)cc4NC(C)C)s2)CC3)c1 [Example 83, (2S,4R)—N-(2-(2-(9-(5-(6-(3-cyanopyrrolo[1,2-b]pyridazin-7-yl)-4-(isopropylamino)pyridin-3-yl)-1,3,4-thiadiazol-2-yl)-3,9-diazaspiro[5.5]undecan-3-yl)-2-oxoethoxy)-4-(4-methylthiazol-5-yl)benzyl)-1-((S)-2-(1-fluorocyclopropane-1-carboxamido)-3,3-dimethylbutanoyl)-4-hydroxypyrrolidine-2-carboxamide] |  | 6.8 |  |  | 319 | 109 |
| CNc1cc(-c2ccc3cc(C#N)cnn23)ncc1-c1nnc([C@H]2CC[C@H](NC(=O)CCOCCOc3cc(-c4scnc4C)ccc3CNC(=O)[C@@H]3C[C@@H](O)CN3C(=O)[C@@H](NC(=O)C3(F)CC3)C(C)(C)C)CC2)s1 [Example 58, (2S,4R)—N-(2-(2-(3-(((1r,4r)-4-(5-(6-(3-cyanopyrrolo[1,2-b]pyridazin-7-yl)-4-(methylamino)pyridin-3-yl)-1,3,4-thiadiazol-2-yl)cyclohexyl)amino)-3-oxopropoxy)ethoxy)-4-(4-methylthiazol-5-yl)benzyl)-1-((S)-2-(1-fluorocyclopropane-1-carboxamido)-3,3-dimethylbutanoyl)-4-hydroxypyrrolidine-2-carboxamide] | 5.26 | 5.3 | 115 | 72.8 | 73.7 | 118 |
| CNc1cc(-c2ccc3cc(C#N)cnn23)ncc1-c1nnc([C@H]2CC[C@H](NC(=O)COc3cc(-c4scnc4C)ccc3CNC(=O)[C@@H]3C[C@@H](O)CN3C(=O)[C@@H](NC(=O)C3(F)CC3)C(C)(C)C)CC2)s1 [Example 159, (2S,4R)—N-(2-(2-(((1r,4S)-4-(5-(6-(3-cyanopyrrolo[1,2-b]pyridazin-7-yl)-4-(methylamino)pyridin-3-yl)-1,3,4-thiadiazol-2-yl)cyclohexyl)amino)-2-oxoethoxy)-4-(4-methylthiazol-5-yl)benzyl)-1-((S)-2-(1-fluorocyclopropane-1-carboxamido)-3,3-dimethylbutanoyl)-4-hydroxypyrrolidine-2-carboxamide] |  | 2.1 |  |  | 111 | 116 |

Second part, the molecule after the results:

| IC50 (IRAK4 [1]; Table 4) [nM] | IC50 (IRAK4 [1]; Table 5, multiple runs) [nM] | Dmax (IRAK4 [2]; [3]) [%] | DC50 (IRAK4 [2]; Table 4) [nM] | DC50 (IRAK4 [2]; Table 5, multiple runs) [nM] | Dmax (IRAK4 [2]; [4]) [%] | SMILES |
| --- | --- | --- | --- | --- | --- | --- |
| 2.1 | 2.1 | 14 | > 10000 | > 9980 |  | CC(C)Nc1cc(-c2ccc3cc(C#N)cnn23)ncc1-c1nnc(N2CCN(CC3CCN(c4ccc(C(=O)NC5CCC(=O)NC5=O)nc4)CC3)CC2)s1 (stereo not shown) [Example 33, 5-(4-((4-(5-(6-(3-cyanopyrrolo[1,2-b]pyridazin-7-yl)-4-(isopropylamino)pyridin-3-yl)-1,3,4-thiadiazol-2-yl)piperazin-1-yl)methyl)piperidin-1-yl)-N-(2,6-dioxopiperidin-3-yl)picolinamide] |
| 0.77 | 0.8 | 93 | 12.9 | 5.87 | 52 | CNc1cc(-c2ccc3cc(C#N)cnn23)ncc1-c1nnc([C@H]2CC[C@H](NC(=O)CCOCCNc3cccc4c3C(=O)N(C3CCC(=O)NC3=O)C4=O)CC2)s1 (stereo partly shown) [Example 71, N-((1r,4r)-4-(5-(6-(3-cyanopyrrolo[1,2-b]pyridazin-7-yl)-4-(methylamino)pyridin-3-yl)-1,3,4-thiadiazol-2-yl)cyclohexyl)-3-(2-((2-(2,6-dioxopiperidin-3-yl)-1,3-dioxoisoindolin-4-yl)amino)ethoxy)propanamide] |
| 0.93 | 0.9 | 89 | 163 | 160 | 101 | CNc1cc(-c2ccc3cc(C#N)cnn23)ncc1-c1nnc([C@H]2CC[C@H](NC(=O)CCCC(=O)N[C@H](C(=O)N3C[C@H](O)C[C@H]3C(=O)NCc3ccc(-c4scnc4C)cc3)C(C)(C)C)CC2)s1 [Example 59, N1-((1r,4S)-4-(5-(6-(3-cyanopyrrolo[1,2-b]pyridazin-7-yl)-4-(methylamino)pyridin-3-yl)-1,3,4-thiadiazol-2-yl)cyclohexyl)-N5-((S)-1-((2S,4R)-4-hydroxy-2-((4-(4-methylthiazol-5-yl)benzyl)carbamoyl)pyrrolidin-1-yl)-3,3-dimethyl-1-oxobutan-2-yl)glutaramide] |
| 4.6 | 4.6 | 111 | 231 | 231 | 111 | Cc1ncsc1-c1ccc(CNC(=O)[C@@H]2C[C@@H](O)CN2C(=O)[C@@H](NC(=O)C2(F)CC2)C(C)(C)C)c(OCCOCCOCCOCCC(=O)N2CCN(c3nnc(-c4cnc(-c5ccc6cc(C#N)cnn56)cc4NC(C)C)s3)CC2)c1 [Example 49, (2S,4R)—N-(2-(2-(2-(2-(3-(4-(5-(6-(3-cyanopyrrolo[1,2-b]pyridazin-7-yl)-4-(isopropylamino)pyridin-3-yl)-1,3,4-thiadiazol-2-yl)piperazin-1-yl)-3-oxopropoxy)ethoxy)ethoxy)ethoxy)-4-(4-methylthiazol-5-yl)benzyl)-1-((S)-2-(1-fluorocyclopropane-1-carboxamido)-3,3-dimethylbutanoyl)-4-hydroxypyrrolidine-2-carboxamide] |
| 0.8 | 0.8 | 96 | 232 | 231 | 99 | CC(C)Nc1cc(-c2ccc3cc(C#N)cnn23)ncc1-c1nnc(N2CCC(NCC3CCN(c4ccc5c(c4)C(=O)N(C4CCC(=O)NC4=O)C5=O)CC3)CC2)s1 (stereo not shown) [Example 22, 7-[5-(5-{4-[({1-[2-(2,6-dioxopiperidin-3-yl)-1,3-dioxo-2,3-dihydro-1H-isoindol-5-yl]piperidin-4-yl}methyl)amino]piperidin-1-yl}-1,3,4-thiadiazol-2-yl)-4-[(propan-2-yl)amino]pyridin-2-yl]pyrrolo[1,2-b]pyridazine-3-carbonitrile] |
